Data reported in the NIST ThermoML archive (doi:10.1021/je900124n).
“And” between values parts separate entries of the source, which are not always exact repeats. Equal values may be shown once.

Conditions: Fluid (supercritical or subcritical phases), Buoyancy - hydrostatic balance with magnetic suspension - two sinkers

CCC [propane]
Conditions	mass density
315 K, 774.95 kPa	14.7169 kg/m3 and 14.7168 kg/m3
315 K, 774.96 kPa	14.7169 kg/m3 and 14.7168 kg/m3
315 K, 1306.4 kPa	27.9201 kg/m3 and 27.9221 kg/m3
315 K, 1306.5 kPa	27.9244 kg/m3
315 K, 1306.6 kPa	27.927 kg/m3 and 27.926 kg/m3
320 K, 270.24 kPa	4.64 kg/m3 and 4.6399 kg/m3 and 4.6398 kg/m3
320 K, 476.69 kPa	8.4338 kg/m3 and 8.4339 kg/m3
320 K, 789.41 kPa	14.6898 kg/m3
320 K, 789.42 kPa	14.69 kg/m3
320 K, 789.43 kPa	14.6907 kg/m3 and 14.6901 kg/m3
320 K, 1333.7 kPa	27.726 kg/m3
320 K, 1333.9 kPa	27.7763 kg/m3
320 K, 1334.3 kPa	27.7883 kg/m3
320 K, 1334.6 kPa	27.742 kg/m3
320 K, 1335 kPa	27.8035 kg/m3
320 K, 2017.4 kPa	457.1 kg/m3
320 K, 2018.5 kPa	457.104 kg/m3
320 K, 2018.7 kPa	457.105 kg/m3
320 K, 2018.8 kPa	457.104 kg/m3
320 K, 2019.1 kPa	457.105 kg/m3
320 K, 2019.3 kPa	457.11 kg/m3
320 K, 2019.4 kPa	457.108 kg/m3
320 K, 2019.5 kPa	457.11 kg/m3
320 K, 2019.8 kPa	457.109 kg/m3 and 457.107 kg/m3 and 457.108 kg/m3
320 K, 2019.9 kPa	457.109 kg/m3
320 K, 4080.8 kPa	466.418 kg/m3
320 K, 4080.9 kPa	466.42 kg/m3
320 K, 4081 kPa	466.419 kg/m3
320 K, 4081.3 kPa	466.42 kg/m3
320 K, 4081.6 kPa	466.42 kg/m3
320 K, 8257.8 kPa	481.065 kg/m3
320 K, 8258.1 kPa	481.068 kg/m3
320 K, 8258.4 kPa	481.067 kg/m3 and 481.068 kg/m3
320 K, 10347 kPa	487.109 kg/m3 and 487.106 kg/m3 and 487.107 kg/m3
320 K, 10348 kPa	487.113 kg/m3 and 487.107 kg/m3
320 K, 10349 kPa	487.112 kg/m3
320 K, 12003 kPa	491.44 kg/m3
320 K, 12004 kPa	491.44 kg/m3 and 491.441 kg/m3
320 K, 16094 kPa	500.965 kg/m3
320 K, 16095 kPa	500.967 kg/m3
320 K, 16096 kPa	500.967 kg/m3
320 K, 20063 kPa	508.971 kg/m3 and 508.967 kg/m3 and 508.969 kg/m3
320 K, 20064 kPa	508.969 kg/m3 and 508.971 kg/m3
320 K, 24069 kPa	516.143 kg/m3
320 K, 24072 kPa	516.146 kg/m3 and 516.148 kg/m3 and 516.147 kg/m3
320 K, 29981 kPa	525.489 kg/m3
320 K, 29983 kPa	525.494 kg/m3
320 K, 29985 kPa	525.495 kg/m3
320 K, 29986 kPa	525.497 kg/m3
320 K, 35299 kPa	532.943 kg/m3
320 K, 35300 kPa	532.945 kg/m3 and 532.943 kg/m3
320 K, 35301 kPa	532.945 kg/m3
325 K, 803.73 kPa	14.6629 kg/m3 and 14.6627 kg/m3 and 14.6626 kg/m3
325 K, 803.74 kPa	14.6631 kg/m3 and 14.6629 kg/m3
325 K, 1340.6 kPa	27.0793 kg/m3
325 K, 1340.9 kPa	27.1015 kg/m3
325 K, 1341.2 kPa	27.0724 kg/m3
325 K, 1341.8 kPa	27.0948 kg/m3
